Data from patent US20110112192A1, “VERFAHREN ZUR GERUCHSEXTINKTION” (priority 2007, published 2011).

Assays:
[1] = Administration of acetylcysteine before the consumption of a garlic containing meal; format: in vivo, human; details: administration about 10 minutes before the meal; 50 mg female, 75 mg male test persons; 15 tests per person
Procedure: 2. Administration of an acetylcysteine before the consumption of a garlic containing meal Battery of tests and dosage applied the same as under 1. The administration of acetylcysteine was done about 10 minutes before the meal.

[2] = Administration of acetylcysteine after the consumption of a garlic containing meal; format: in vivo, human; details: ACC-fizzing tablets (Hexal) given after the meal; 50 mg female test persons (32 to 74 kg), 75 mg male test persons (52 to 98 kg); 15 tests per person
Procedure: 1. Administration of acetylcysteine after the consumption of a garlic containing meal Battery of tests with 15 tests per person. Dosing: 50 mg with female test persons (32 to 74 kg body weight) i. 75 mg with male test persons (52 to 98 kg body weight) In these tests, the ACC-fizzing tablets of the Hexal company were applied. The positive test results were observed each within a time window of 10 to 20 minutes after administration of the acetylcysteine.

CC(=O)N[C@@H](CS)C(=O)O [acetylcysteine]
odor formation after garlic containing meal [1]: odor formation was likewise prevented | odor after garlic containing meal [2]: no odor in all tests
